Results on ten substances are retold here after publication PMC6844273, “Platinum(IV) dihydroxido diazido N-(heterocyclic)imine complexes are potently photocytotoxic when irradiated with visible light” (Chemical Science, 2019).

Entries after “also recorded” stand apart in the source; their conditions may differ. Read-outs that look alike come from different tables or passages of the source. Marks after values point to notes of the source that are not given here. Bounds are passed on as bounds.

For data set [1], the system named is cisplatin-resistant ovarian (A2780cis) cancer cell line. The data set is described as follows: Phototoxicity / dark cytotoxicity, neutral red uptake assay, A2780cis. The conditions noted are these: for PI (phototoxic index): ratio of cytotoxicity following irradiation (420 nm) vs. in the dark; for IC50: read-out: IC50 (phototoxicity), blue light 420 nm, 5 J cm^–2, TL03, filtered <400 nm. The method, then: (§1) The novel trans-di-(N-heterocyclic)imine dihydroxido diazido Pt^IV complexes Pt^IV complexes were evaluated against human ovarian (A2780), cisplatin-resistant ovarian (A2780cis) and oesophageal (OE19) cancer cell lines, and the previously reported compounds (FM165 and 3) were also evaluated for comparison. […]
(§2) Maintenance. Human ovarian carcinoma (A2780), cisplatin-resistant ovarian carcinoma (A2780CIS) and oesophageal adenocarcinoma (OE19) cells were maintained in RPMI medium containing 10% Foetal Calf Serum (FCS). Cell lines were obtained from the European Collection of Animal Cell Cultures (ECACC). Cells were maintained in antibiotic-free medium in a humidified atmosphere of 95% air: 5% CO2 and subcultured every 7-10 days. Mycoplasma checks were done using the Hoechst staining method. Cells were seeded into dishes the night before experiments at a density of 6 - 7×10^4 cells.cm-2.
(§3) Experiments were carried out in an adapted laboratory with ambient light levels kept below 1 lux […]
(§4) Irradiation. Cells were irradiated by a bank of TL03 light sources (λmax 420 nm), filtered to attenuate wavelengths below 400 nm. Irradiances, dosimetry and calibrations were traceable to the National […]
(§5) Cells were irradiated in stirred suspension. Sham irradiated cells were treated identically to the test cells but were covered during irradiation.
(§6) Treatment. Test compounds were prepared in Earle’s Balanced Salt Solution (EBSS) and filtered immediately before use. Photofrin was used as the positive control for visible light irradiation. The positive and negative controls were included on each plate in parallel with the complexes. Cell viability […]
(§7) Cells were treated for 1 h at 37 °C/5% CO2 with EBSS containing the test compound, and then irradiated with 5 J.cm-2 visible radiation.
(§8) Phototoxic Index and Wavelength-Dependence. The phototoxic Index (PI) was determined 24 h after irradiation using the neutral red uptake assay;14 following cell uptake the neutral red dye accumulates in lysosomes, the low pH in the lysosomal matrix of live cells causes the dye to becomes charged, allowing it to be retained in this organelle.15 The dye was then extracted from the cells upon solubilisation and quantified. Protocol: a stock solution of neutral red was prepared in water (4 mg. mL-1) and diluted 80-fold in the cell culture medium (RPMI). Prior to addition to the cells, the solution was heated to 37 °C and filtered (no. 1 Whatman paper). The growth medium was removed from the cells, the neutral red dye (100 μL) was added and the cells are incubated for 3 hours in the dark. Upon removal of the dye, the cells were rinsed with PBS (100 μL) and then the plates were shaken for 15 min with […] for solubilisation. The dye concentration was quantified by measuring the absorbance at […]. An IC50 value was determined and is defined as the concentration required to inhibit dye uptake by 50%. This was done using non-linear regression (Graphpad Prism). Goodness of fit was determined from the R2 values of the curves and 95% confidence intervals. All cell experiments were performed in triplicate and repeated independently a minimum of two times.

Data set [2] relates to A2780, A2780cis and OE19 cancer cell lines. The conditions noted are these: for IC50: read-out: IC50 in the absence of irradiation, dark, non-toxic defined as IC50 > 200 μM; for Dark toxicity: absence of irradiation, cell lines investigated. The method, then: as §1, §2, §3, §4, §5, §6, §7, §8
The test system of data set [3] is oesophageal (OE19) cancer cell line. The data set is described as follows: Phototoxicity / dark cytotoxicity, neutral red uptake assay, OE19. The conditions noted are these: for PI (phototoxic index) / IC50: OE19; for PI (phototoxic index): ratio of cytotoxicity following irradiation (420 nm) vs. in the dark; for IC50: read-out: IC50 (phototoxicity), blue light 420 nm, 5 J cm^–2, TL03, filtered <400 nm. The method, then:
as §1
(§9) controller and 3 UVA lamps (Hitachi, λmax = 361 nm) or 6 Luzchem LZC-420 lamps (λmax = 420 nm) with no other sources of light filtration, or LED light sources (BASETech model no. SP-GU10 230V~50 Hz […]
as §2, §3
(§10) Irradiation. Cells were irradiated by a bank of TL03 light sources (λmax 420 nm), filtered to attenuate wavelengths below 400 nm. Irradiances, dosimetry and calibrations were traceable to the National Physical Laboratory.12 Monochromatic light irradiation of the sample was performed using equipment consisting of a 1600W xenon arc light source and a grating monochromator. The apparatus was set to irradiate monochromatic light at 365, 400, 430, 500 and 530 nm. Filters were used to eliminate second order diffraction of shorter wavelengths from the specified longer wavelength monochromatic light.13 Cells were irradiated in stirred suspension. Sham irradiated cells were treated identically to the test cells but were covered during irradiation.
as §6, §7, §8

For data set [4], the system named is human ovarian (A2780) cancer cell line. The data set is described as follows: Phototoxicity / dark cytotoxicity, neutral red uptake assay, A2780. The conditions noted are these: for PI (phototoxic index): ratio of cytotoxicity following irradiation (420 nm) vs. in the dark. The method, then:
as §1, §9, §2, §3, §10, §6, §7, §8

For data set [5] the test system is unchanged. The following applies: cited from earlier work; for IC50: read-out: IC50 (phototoxicity); for Dark toxicity: A2780, absence of irradiation.
For data set [6], the system named is cisplatin-resistant ovarian (A2780cis) cancer cell line. The conditions noted are these: read-out: IC50 (phototoxicity), cited from earlier work.
Data set [7] concerns oesophageal (OE19) cancer cell line. Further details: method as in PMID 23733242. The conditions noted are these: OE19, 420 nm irradiation; read-out: IC50 (phototoxicity); cited from earlier work.
The test system of data set [8] is A2780, A2780cis and OE19 cancer cell lines. Further details: method as in PMID 23733242. The conditions noted are these: dark; read-out: IC50 in the absence of irradiation; cited from earlier work.
The format of data set [9] is physicochemical. The conditions noted are these: water, 20 °C.
Data set [10] is described as follows: Photodecomposition in H2O (loss of N3→Pt LMCT band) by UV-vis spectroscopy. The data set is classed as physicochemical. The following applies: 60 μM in H2O, blue light 463 nm, 57 mW cm^–2, UV-vis. The protocol:
Solutions of the Pt^IV diazido complexes (60 μM, H2O) were irradiated with blue light (463 nm, 57 mW cm^–2). […] The data were fitted to y = y0 + Ae^Rox, with r^2 > 0.98 (Fig. 7).
Figure S2: Changes in UV-Vis spectra of the PtIV diazido complexes (60 μM in H2O) upon irradiation
Table S11. Decomposition half-lives of complexes (60 μM) when irradiated with blue (463 nm) light,
as measured by UV-Vis spectroscopy.
(1 picture or pasted object on this page, not shown here)

Setting [11] is: read-out: IC50 (phototoxicity), A2780, blue light 420 nm, 5 J cm^–2, TL03, filtered <400 nm, 1 h treatment, read 24 h after irradiation.

As for “trans,trans,trans-[Pt(N3)2(OH)2(3-picoline)(pyridine)] [Complex 19]”, the entries for the “PI (phototoxic index)” value in data set [1], in data set [3] and in [4] (A2780) were more than 71.0, more than 38 and more than 51.5, respectively. In addition, the IC50 is 3.3 µM in [1], more than 200 µM in data set [2], 5.5 µM in data set [3] and 4 µM in data set [4] (setting [11]).
For the substance “trans,trans,trans-[Pt(N3)2(OH)2(NH2CH3)(thiazole)]”, the IC50 in data set [5] (A2780, 420 nm irradiation) is 28.2 µM; in data set [6] (420 nm irradiation), 6.4 µM; in data set [7], 19.3 µM; in [8] it was more than 233 µM.
In the case of “trans,trans,trans-[Pt(N3)2(OH)2(1-methylimidazole)2] [Complex 32]”, the “PI (phototoxic index)” value in data set [1] is given as more than 1.3; in data set [4] (A2780), more than 3.7. Also, the IC50 was 164 µM in [1], more than 200 µM in data set [2] and 56.3 µM in data set [4] (setting [11]). Moreover, the “Dark toxicity” value in data set [2] is reported as “non-toxic in the absence of irradiation”. In data set [9], the Maximum aqueous solubility is listed as 82 mM.
Take “trans,trans,trans-[Pt(N3)2(OH)2(2-picoline)(pyridine)] [Complex 18]”: the “PI (phototoxic index)” value in data set [1] was 5.3 ^d; in [4] (A2780), 7.3 ^d. Also, the concentration for half-maximal inhibition (IC50) in [1] came out at 15.5 µM; in data set [4] (setting [11]), 14.5 µM. Also, the “Phototoxicity, fold less phototoxic than 26” value in data set [4] (A2780, 420 nm) is approximately 7 fold.
In the case of “trans,trans,trans-[Pt(N3)2(OH)2(3-picoline)2] [Complex 23]”, the “PI (phototoxic index)” value in data set [1] is listed as more than 19.3; in data set [4] (A2780) it was more than 27.8. Moreover, the IC50 is 10.4 µM in data set [1], more than 200 µM in data set [2] and 7.2 µM in data set [4] (setting [11]). Besides, the “Decomposition half-life t1/2” value in data set [10] is 26 min. Further, the Maximum aqueous solubility in [9] worked out at 3 mM.
“trans,trans,trans-[Pt(N3)2(OH)2(4-picoline)(pyridine)] [Complex 20]”: the results for the “PI (phototoxic index)” value in data set [1], in data set [3] and in data set [4] (A2780) were more than 45, more than 17 and more than 38, respectively. Further, the IC50 in data set [1] was 4.6 µM; in data set [2] it was more than 200 µM; in data set [3], 12.3 µM; in [4] (setting [11]), 5.4 µM. Further, the “Phototoxicity with green light” value is “no phototoxicity” in [3] (OE19, green light 515 nm) and “no phototoxicity” in data set [4] (A2780, green light 515 nm).
“trans,trans,trans-[Pt(N3)2(OH)2(NH3)(py)] [FM165, reference compound]”: the “Dark toxicity” value in data set [5] is listed as “non-toxic in the absence of irradiation”. Moreover, the IC50 in [5] (A2780, visible light 420 nm) was 25.4 µM; in [4] (setting [11]), 25.4 µM. Moreover, in [4] (A2780), the “PI (phototoxic index)” value is listed as more than 9.6.
For the substance “trans,trans,trans-[Pt(N3)2(OH)2(4-picoline)2] [Complex 26]”, the IC50 was 4.1 µM in data set [1], more than 200 µM in [2], 8.2 µM in [3] and 2.1 µM in data set [4] (setting [11]). Also, the “Decomposition half-life t1/2” value in [10] is recorded as 25 min.
Consider “trans,trans,trans-[Pt(N3)2(OH)2(thiazole)2] [Complex 29]”, for which the “Dark toxicity” value in data set [1] (absence of irradiation) is given as “no toxicity; also recorded: without any dark toxicity”; in data set [2], “toxic towards cells in the absence of irradiation”; in data set [3] (OE19, absence of irradiation), “no toxicity; also recorded: without any dark toxicity”; in [4] (A2780, absence of irradiation) it was “some dark toxicity”. Moreover, the “PI (phototoxic index)” value in [1] is given as more than 71.0; in data set [3], more than 27. In addition, the IC50 in data set [1] amounted to 2.9 µM; in data set [3], 7.6 µM; in data set [4] (setting [11]), 2.4 µM; in [4] (read-out: IC50 in the absence of irradiation, A2780, dark), 115 µM. In addition, the “Phototoxicity, fold greater than thiazole complex (tz, methylamine)” value in [2] (all three cell lines, 420 nm) was “at least 2 fold”. Moreover, the “Decomposition half-life t1/2” value in data set [10] was found to be 17 min. For the same substance, the Maximum aqueous solubility in data set [9] stood at 1 mM.
Turning to “trans,trans,trans-[Pt(OH)2(N3)2(py)2] [Complex 3, reference compound]”, the IC50 in data set [5] (A2780, UVA irradiation) is 1.4 µM; in [5] (A2780, visible light 420 nm), 6.7 µM; in [6] (UVA irradiation) it was 14.5 µM; in [3], 8.4 µM; in [4] (setting [11]) it was 6.7 µM. Also, the “Dark toxicity” value in [5] is on record as “non-toxic in the absence of irradiation”. Moreover, the “Decomposition half-life t1/2” value in data set [10] came out at 22 min. Also, the “PI (phototoxic index)” value in data set [3] and in [4] (A2780) was more than 45 throughout. In [9], this substance came in with a Maximum aqueous solubility of 34 mM.
